ChEMBL document CHEMBL3885861, “Open TG-GATES”

Organism: Rattus norvegicus
Assay: Open TG-GATES - Regimen: Daily Repeat
Assay type: toxicity, organism-based, Sprague-Dawley
Design: regimen Daily Repeat, gender Male, age 6 weeks
Settings: in vivo, po, route gavage; for APTT / Bas / Eos / Fbg / Hb / Ht / Lym / MCH / MCHC / MCV / Mono / Neu / PT / Plat / RBC / Ret / WBC: tissue Blood; for KIDNEY_L / KIDNEY_R / KIDNEY_TOTAL: tissue Kidney; for LIVER: tissue Liver; for A/G / ALP / ALT / AST / BUN / CRE / Ca / Cl / DBIL / GLC / IP / K / LDH / Na / PL / RALB / TBIL / TC / TG / TP / gamma-GTP: tissue Plasma
[1] = 300 mg/kg, 72 h, dose level Middle, time 3 day
[2] = 300 mg/kg, […], dose level Middle, time 7 day
[3] = 300 mg/kg, […], dose level Middle, time 14 day
[4] = 300 mg/kg, […], dose level Middle, time 28 day
[5] = 1000 mg/kg, 72 h, dose level High, time 3 day
[6] = 1000 mg/kg, […], dose level High, time 7 day
[7] = 1000 mg/kg, […], dose level High, time 14 day
[8] = 1000 mg/kg, […], dose level High, time 28 day

## O=C(O)c1cc(/N=N/c2ccc(S(=O)(=O)Nc3ccccn3)cc2)ccc1O [SULFASALAZINE]
[1]
  TERMINAL_BW: 236.9 g
  APTT: 18.6 s
  Bas: 0%
  Eos: 1%
  Fbg: 213 mg/dL
  Hb: 13.2 g/dL
  Ht: 38.4%
  Lym: 81.6%
  MCH: 21.8 pg
  MCHC: 34.5%
  MCV: 63.2 fL
  Mono: 2.2%
  Neu: 14%
  PT: 12.5 s
  Plat: 146.1 x10_4/uL
  RBC: 607.4 x10_4/ul
  Ret: 5.7%
  WBC: 109.3 x10_2/uL
  KIDNEY_L: 1 g
  KIDNEY_R: 1 g
  KIDNEY_TOTAL: 2 g
  LIVER: 11.1 g
  A/G: 1.5
  ALP: 1050.4 IU/L
  ALT: 37 IU/L
  AST: 69.6 IU/L
  BUN: 16.4 mg/dL
  CRE: 0.4 mg/dL
  Ca: 10.9 mg/dL
  Cl: 103.2 meq/L
  DBIL: 0.092 mg/dL
  GLC: 202.6 mg/dL
  IP: 6.8 mg/dL
  K: 3.9 meq/L
  LDH: 257.2 IU/L
  Na: 141 meq/L
  PL: 156.6 mg/dL
  RALB: 3.4 g/dL
  TBIL: 0.2 mg/dL
  TC: 81 mg/dL
  TG: 86.6 mg/dL
  TP: 5.6 g/dL
  gamma-GTP: 1.4 IU/L
[2]
  TERMINAL_BW: 264.7 g
  APTT: 18.5 s
  Bas: 0%
  Eos: 1%
  Fbg: 212.4 mg/dL
  Hb: 13.6 g/dL
  Ht: 39.4%
  Lym: 79.4%
  MCH: 21.4 pg
  MCHC: 34.5%
  MCV: 62 fL
  Mono: 2.6%
  Neu: 15.6%
  PT: 12.9 s
  Plat: 124.9 x10_4/uL
  RBC: 636.2 x10_4/ul
  Ret: 5.3%
  WBC: 123 x10_2/uL
  KIDNEY_L: 1.1 g
  KIDNEY_R: 1.1 g
  KIDNEY_TOTAL: 2.2 g
  LIVER: 11.8 g
  A/G: 1.7
  ALP: 838.8 IU/L
  ALT: 36.8 IU/L
  AST: 66.2 IU/L
  BUN: 15.8 mg/dL
  CRE: 0.4 mg/dL
  Ca: 10.7 mg/dL
  Cl: 103.6 meq/L
  DBIL: 0.088 mg/dL
  GLC: 213.8 mg/dL
  IP: 7 mg/dL
  K: 3.7 meq/L
  LDH: 186.6 IU/L
  Na: 140.8 meq/L
  PL: 144.4 mg/dL
  RALB: 3.5 g/dL
  TBIL: 0.1 mg/dL
  TC: 70.8 mg/dL
  TG: 83 mg/dL
  TP: 5.6 g/dL
  gamma-GTP: 1.4 IU/L
[3]
  TERMINAL_BW: 309.2 g
  APTT: 18.5 s
  Bas: 0%
  Eos: 1%
  Fbg: 214.6 mg/dL
  Hb: 14.8 g/dL
  Ht: 41.7%
  Lym: 83.4%
  MCH: 21.2 pg
  MCHC: 35.4%
  MCV: 59.8 fL
  Mono: 2.6%
  Neu: 11.6%
  PT: 12.7 s
  Plat: 114.3 x10_4/uL
  RBC: 698 x10_4/ul
  Ret: 4.3%
  WBC: 109.2 x10_2/uL
  KIDNEY_L: 1.2 g
  KIDNEY_R: 1.2 g
  KIDNEY_TOTAL: 2.4 g
  LIVER: 13 g
  A/G: 1.4
  ALP: 901 IU/L
  ALT: 37.2 IU/L
  AST: 64.8 IU/L
  BUN: 18 mg/dL
  CRE: 0.5 mg/dL
  Ca: 10.7 mg/dL
  Cl: 102.8 meq/L
  DBIL: 0.094 mg/dL
  GLC: 190.6 mg/dL
  IP: 7.1 mg/dL
  K: 3.6 meq/L
  LDH: 204.6 IU/L
  Na: 141 meq/L
  PL: 151.2 mg/dL
  RALB: 3.5 g/dL
  TBIL: 0.2 mg/dL
  TC: 70.4 mg/dL
  TG: 105.8 mg/dL
  TP: 6 g/dL
  gamma-GTP: 2 IU/L
[4]
  TERMINAL_BW: 365.3 g
  APTT: 18.2 s
  Bas: 0%
  Eos: 1%
  Fbg: 199 mg/dL
  Hb: 15.2 g/dL
  Ht: 42.2%
  Lym: 81.2%
  MCH: 20.1 pg
  MCHC: 35.9%
  MCV: 56 fL
  Mono: 2.4%
  Neu: 14.4%
  PT: 12.8 s
  Plat: 100.8 x10_4/uL
  RBC: 753.6 x10_4/ul
  Ret: 3%
  WBC: 88.7 x10_2/uL
  KIDNEY_L: 1.3 g
  KIDNEY_R: 1.3 g
  KIDNEY_TOTAL: 2.6 g
  LIVER: 13.6 g
  A/G: 1.5
  ALP: 668.8 IU/L
  ALT: 37.4 IU/L
  AST: 63.6 IU/L
  BUN: 18 mg/dL
  CRE: 0.5 mg/dL
  Ca: 10.3 mg/dL
  Cl: 103.8 meq/L
  DBIL: 0.082 mg/dL
  GLC: 214.2 mg/dL
  IP: 6.3 mg/dL
  K: 3.3 meq/L
  LDH: 134.4 IU/L
  Na: 141.8 meq/L
  PL: 128.6 mg/dL
  RALB: 3.5 g/dL
  TBIL: 0.1 mg/dL
  TC: 59.6 mg/dL
  TG: 92.6 mg/dL
  TP: 5.9 g/dL
  gamma-GTP: 1.2 IU/L
[5]
  TERMINAL_BW: 221.5 g
  APTT: 18 s
  Bas: 0%
  Eos: 0.8%
  Fbg: 215 mg/dL
  Hb: 14.4 g/dL
  Ht: 42%
  Lym: 87.2%
  MCH: 21.4 pg
  MCHC: 34.2%
  MCV: 62.4 fL
  Mono: 2%
  Neu: 8.8%
  PT: 13.1 s
  Plat: 127.1 x10_4/uL
  RBC: 674.2 x10_4/ul
  Ret: 3.4%
  WBC: 93.4 x10_2/uL
  KIDNEY_L: 1 g
  KIDNEY_R: 1 g
  KIDNEY_TOTAL: 1.9 g
  LIVER: 10.2 g
  A/G: 1.6
  ALP: 888.8 IU/L
  ALT: 49.4 IU/L
  AST: 77.4 IU/L
  BUN: 20.8 mg/dL
  CRE: 0.4 mg/dL
  Ca: 10.8 mg/dL
  Cl: 103.6 meq/L
  DBIL: 0.094 mg/dL
  GLC: 187.4 mg/dL
  IP: 6.8 mg/dL
  K: 3.6 meq/L
  LDH: 252.8 IU/L
  Na: 141 meq/L
  PL: 149.2 mg/dL
  RALB: 3.5 g/dL
  TBIL: 0.1 mg/dL
  TC: 78.4 mg/dL
  TG: 70 mg/dL
  TP: 5.6 g/dL
  gamma-GTP: 1.4 IU/L
[6]
  TERMINAL_BW: 246.1 g
  APTT: 19.3 s
  Bas: 0%
  Eos: 0.6%
  Fbg: 197 mg/dL
  Hb: 14.1 g/dL
  Ht: 40.8%
  Lym: 86.2%
  MCH: 21.2 pg
  MCHC: 34.7%
  MCV: 61.1 fL
  Mono: 2.6%
  Neu: 9.6%
  PT: 13.6 s
  Plat: 106.1 x10_4/uL
  RBC: 667.6 x10_4/ul
  Ret: 4.5%
  WBC: 106.7 x10_2/uL
  KIDNEY_L: 1 g
  KIDNEY_R: 1 g
  KIDNEY_TOTAL: 2.1 g
  LIVER: 10.8 g
  A/G: 1.6
  ALP: 756.2 IU/L
  ALT: 46 IU/L
  AST: 74 IU/L
  BUN: 19.8 mg/dL
  CRE: 0.4 mg/dL
  Ca: 10.7 mg/dL
  Cl: 104.6 meq/L
  DBIL: 0.068 mg/dL
  GLC: 202.8 mg/dL
  IP: 7.2 mg/dL
  K: 3.4 meq/L
  LDH: 216.4 IU/L
  Na: 142.4 meq/L
  PL: 118 mg/dL
  RALB: 3.5 g/dL
  TBIL: 0.1 mg/dL
  TC: 63 mg/dL
  TG: 36.4 mg/dL
  TP: 5.7 g/dL
  gamma-GTP: 1.4 IU/L
[7]
  TERMINAL_BW: 276.8 g
  APTT: 19.4 s
  Bas: 0%
  Eos: 0.8%
  Fbg: 200.6 mg/dL
  Hb: 15.2 g/dL
  Ht: 42.7%
  Lym: 85.4%
  MCH: 20.2 pg
  MCHC: 35.6%
  MCV: 57 fL
  Mono: 1.8%
  Neu: 10.8%
  PT: 13.4 s
  Plat: 106.3 x10_4/uL
  RBC: 750.2 x10_4/ul
  Ret: 3%
  WBC: 132.9 x10_2/uL
  KIDNEY_L: 1.1 g
  KIDNEY_R: 1.2 g
  KIDNEY_TOTAL: 2.2 g
  LIVER: 11.1 g
  A/G: 1.6
  ALP: 776.2 IU/L
  ALT: 47.6 IU/L
  AST: 75.2 IU/L
  BUN: 21.2 mg/dL
  CRE: 0.5 mg/dL
  Ca: 10.7 mg/dL
  Cl: 103 meq/L
  DBIL: 0.068 mg/dL
  GLC: 186.2 mg/dL
  IP: 6.7 mg/dL
  K: 3.5 meq/L
  LDH: 196.6 IU/L
  Na: 141.8 meq/L
  PL: 122.2 mg/dL
  RALB: 3.7 g/dL
  TBIL: 0.1 mg/dL
  TC: 67.2 mg/dL
  TG: 33.8 mg/dL
  TP: 6.1 g/dL
  gamma-GTP: 1.4 IU/L
[8]
  TERMINAL_BW: 334.1 g
  APTT: 18.9 s
  Bas: 0%
  Eos: 1%
  Fbg: 206.2 mg/dL
  Hb: 14.9 g/dL
  Ht: 41.8%
  Lym: 84%
  MCH: 19.5 pg
  MCHC: 35.6%
  MCV: 54.7 fL
  Mono: 1.8%
  Neu: 12.6%
  PT: 13.3 s
  Plat: 101.4 x10_4/uL
  RBC: 763.6 x10_4/ul
  Ret: 4.2%
  WBC: 116.9 x10_2/uL
  KIDNEY_L: 1.3 g
  KIDNEY_R: 1.3 g
  KIDNEY_TOTAL: 2.6 g
  LIVER: 12.9 g
  A/G: 1.6
  ALP: 655 IU/L
  ALT: 44.8 IU/L
  AST: 68.6 IU/L
  BUN: 19.8 mg/dL
  CRE: 0.5 mg/dL
  Ca: 10.4 mg/dL
  Cl: 103.6 meq/L
  DBIL: 0.074 mg/dL
  GLC: 206.8 mg/dL
  IP: 6.2 mg/dL
  K: 3.3 meq/L
  LDH: 137.6 IU/L
  Na: 143.2 meq/L
  PL: 108.6 mg/dL
  RALB: 3.8 g/dL
  TBIL: 0.1 mg/dL
  TC: 62.2 mg/dL
  TG: 27.6 mg/dL
  TP: 6.1 g/dL
  gamma-GTP: 1.4 IU/L
